Source: patent publication US4760085A, “Use of D,L-and D-carazolol as anti-glaucoma agent” (Boehringer Mannheim GmbH, priority 1983, dated 1988)
Read-outs that look alike come from different tables or passages of the source.

What was measured:
[1] = test system: intraocular pressure in water loaded rabbits; experiment: Intraocular pressure reduction in water loaded conscious rabbits; type: in vivo; conditions: one drop of 0.05% solution; for Reduction of the intraocular pressure in water loaded rabbits after administration of 0.05% solution: conscious rabbits, water loading
Method: For measurement of an intraocular pressure-reducing effect the intraocular pressure in some test animals (rabbits) were increased by means of water loading (Method: Th. McDonalds et al in Arch. Ophtal. 82, p. 381, 1969). Thereafter the influence of one drop of a 0,05% solution of D,L-carazolol respectively the enantiomeres thereof were measured.

[2] = test system: tachycardic effect of 1 mcg/kg i.v. Isoprenaline (β-blocking); experiment: β-blocking activity: inhibition of isoprenaline-induced tachycardia in conscious rabbits; type: in vivo; conditions: for ED50: Oryctolagus cuniculus, iv, read-out: β-blocking activity ID50 (inhibition dose 50% of the tachycardic effect of 1 mcg/kg i.v. Isoprenaline)
Method: D,L-Carazolol, D-carazolol and L-carazolol were tested in respect to a β-blocking and intraocular pressure-reducing activity. The β-blocking activity was measured by means of a tachycardic effect caused by 1 μg/kg i.v. isoprenaline (Dr. Bartsch et al in Drug Research 27 (I), 5, p. 1022 et seq (1977).

[3] = test system: internal eye pressure in glaucoma patients; experiment: Lowering of internal eye pressure in humans (glaucoma patients), eye drops; type: in vivo
Method: (§1) For this purpose, patients were treated once per day with D,L-carazolol eye drops.

glaucoma patients [4] = experiment: Compatibility / side effects of eye drops in humans; type: in vivo
Method: as §1

[5] = test system: internal pressure of the eye; experiment: Experiments on lowering of the internal pressure of the eye (species not stated); type: in vivo
[6] = Side effects observed in the experiments (species not stated); type: in vivo
β-blocking action [7] = conditions: humans and animals; cited from earlier work
β-blocking action [8] = conditions: Circ. Res., 49, 326-336/1981; cited from earlier work
[9] = test system: pressure of the eye in glaucoma patients; conditions: glaucoma patients (Krieglstein 1978); cited from earlier work
glaucoma patients [10] = conditions: cited from earlier work
[11] = 0.01% solution of D,L-carazolol
[12] = D-carazolol, concentration not given

With CC(C)NCC(O)COc1cccc2[nH]c3ccccc3c12 (racemic) [D,L-Carazolol, (D,L)-1-carbazolyl-(4)-oxy-3-isopropylaminopropan-2-ol] the “Reduction of the intraocular pressure in water loaded rabbits after administration of 0.05% solution” value (from here on “Reduction … of 0.05% solution”) [1] was 12%, the ED50 [2] was 3 µg/kg and the “β-blocking activity (in words)” value ([2]; isoprenaline tachycardia) was “good β-blocking activity”. The “lowering of internal eye pressure” value ([3]; glaucoma patients, D,L-carazolol eye drops once per day, 0.005 to 0.03%) was “significantly lower the internal eye pressure in glaucoma patients”, the “known side effects (anaesthetised feeling in the eye or head region, strong burning sensation)” value (glaucoma patients [4]; humans, 0.01% solution) was “did not give rise to any of the known side effects” and the compatibility (glaucoma patients [4]; humans, eye drops) was “good compatibility”. For the same compound, the “lowering of the inner pressure of the eye” value [5, 11] was “significant lowering of the inner pressure of the eye”, the undesired side effects [6, 11] was “without any undesired side effects being observed” and the β-blocking action (β-blocking action [7]) was “outstanding β-blocking action”.

With CC(C)NC[C@@H](O)COc1cccc2[nH]c3ccccc3c12 [D-Carazolol, R(+)-1-carbazolyl-(4)-oxy-3-isopropylaminopropan-2-ol] the “Reduction … of 0.05% solution” value [1] was 21%, the “intraocular pressure-reducing activity (in words)” value ([1]; water loaded rabbits) was “most effective compound” and the ED50 [2] was 222 µg/kg. For the same compound, the “lowering of internal eye pressure” value ([3]; D-carazolol and salts thereof) was “significant lowering of the internal eye pressure”, the side effects (glaucoma patients [4]; D-carazolol and salts thereof) was “in no case were side effects observed” and the “lowering of the internal pressure of the eye” value [5, 12] was “significant lowering of the internal pressure of the eye”. The “systemic side effects typical of β-blockers” value [6, 12] was “without the occurrence of systemic side effects which are typical of β-blockers” and the β-blocking action (β-blocking action [8]) was “no such action was ascertained”.

For CC(C)NC[C@H](O)COc1cccc2[nH]c3ccccc3c12 [L-Carazolol], the “Reduction … of 0.05% solution” value [1] was 5% and the ED50 [2] was 1.6 µg/kg.

In the case of CC(C)NCC(O)COc1cccc2ccccc12 (stereo not shown) [propranolol], the “reduction of the pressure of the eye” value [9] is given as “can reduce the pressure of the eye in glaucoma patients”.

For CC(C)(C)NC[C@H](O)COc1nsnc1N1CCOCC1 [Timolol, S-(-)-1-(tert.-butylamino)-3-[(4-morpholino-1,2,5-thiadiazol-3-yl)-oxy]-propan-2-ol], the “rare but very serious incidents as a result of the β-blockade” value (glaucoma patients [10]; after administration of timolol (Vonwil et al. 1981)) is listed as “asthmatic attacks, heart rhythm disturbances and even some fatal cases” and the “side effects in glaucoma therapy” value (glaucoma patients [10]; commercially available 0.5% solution, especially long-term therapy (Nielsen 1981)) is listed as “significant lowering of the blood pressure and the development of dry eyes”.
